Tests used:
[1] = test system: HL-60; assay: Inhibition of [3H]Arachidonic acid production by stimulated HL60 (human leukemia) cells.; format: functional, cell-based
[2] = In vitro inhibition of human recombinant cytosolic phospholipase A2 (c-PLA2).

SMILES	IC50 [1] [nM]	IC50 [2] [nM]
O=C(COc1ccc(C(=O)O)cc1)COc1ccc([S+]([O-])CCCCCc2ccccc2)cc1 (configuration not stated)	18000	1800
O=C(COc1ccc(C(=O)O)cc1)COc1ccc(-c2noc(-c3ccc(Cl)c(Cl)c3)n2)cc1	4700	40
O=C(COc1ccc(C(=O)O)cc1)COc1ccc(C(=O)NCCCCc2ccccc2)cc1	–	20000
Cn1ccnc1SCCCCOc1ccc(OCC(=O)COc2ccc(C(=O)O)cc2)cc1	–	63000
O=C(COc1ccc(OCCCCSc2nc3ccccc3o2)cc1)COc1ccc(C(=O)O)cc1	1100	140
O=C(COc1ccc(C(=O)O)cc1)COc1ccc(C(=O)OCCCCCc2ccccc2)cc1	1300	50
O=C(COc1ccc(SCCCCCc2ccccc2)cc1)COc1ccc(C(=O)O)cc1	5800	80
CCCCCCCCCCOc1ccc(OCC(=O)COc2ccc(C(=O)O)cc2)cc1	–	30
O=C(COc1ccc(SCCCCC(=O)N2CCCCC2)cc1)COc1ccc(C(=O)O)cc1	–	12000
CCOCCCCCCCOc1ccc(OCC(=O)COc2ccc(C(=O)O)cc2)cc1	–	1700
O=C(COc1ccc(OCCCCCc2ccco2)cc1)COc1ccc(C(=O)O)cc1	4800	590
O=C(COc1ccc(C(=O)O)cc1)COc1ccc(-c2noc(Cc3ccc(Cl)c(Cl)c3)n2)cc1	2700	90

The remaining compounds from weak to strong by IC50 [2], led by results:

IC50 [1] [nM]	IC50 [2] [nM]	SMILES
–	34000	CN(CCc1ccccc1)C(=O)CSc1ccc(OCC(=O)COc2ccc(C(=O)O)cc2)cc1
–	5200	O=C(COc1ccc(OCCCCCC2CCCO2)cc1)COc1ccc(C(=O)O)cc1 (configuration not stated)
5200	1000	O=C(COc1ccc(C(=O)O)cc1)COc1ccc(S(=O)(=O)CCCCCc2ccccc2)cc1
1100	760	O=C(COc1ccc(SCCCCSc2nccs2)cc1)COc1ccc(C(=O)O)cc1
1000	560	O=C(COc1ccc(C(=O)O)cc1)COc1ccc2c(c1)C(=O)N(Cc1ccc(Cl)c(Cl)c1)C2=O
2600	460	O=C(COc1ccc(OCCCCCc2ccccc2)cc1)COc1ccc(C(=O)O)cc1
760	270	O=C(COc1ccc(C(=O)O)cc1)COc1ccc(-c2noc(CCCCc3ccccc3)n2)cc1
2000	250	O=C(COc1ccc(OCc2ccc(Cl)c(Cl)c2)cc1)COc1ccc(C(=O)O)cc1
760	180	O=C(COc1ccc(C(=O)O)cc1)COc1ccc2c(c1)C(=O)N(CCCCc1ccccc1)C2=O
1000	80	O=C(COc1ccc(SCCCCCc2ccco2)cc1)COc1ccc(C(=O)O)cc1

— ChEMBL document CHEMBL1147487, “Synthesis and evaluation of substrate-mimicking cytosolic phospholipase A2 inhibitors--reducing the lipophilicity of the arachidonyl chain isostere” (Bioorg Med Chem Lett, 2004)
